Test results taken from ChEMBL document CHEMBL3272159, “Synthesis and antihypertensive activity of 1-amino-3,4-dihydroisoquinolines” (1977).

System: Rattus norvegicus
Test: Antihypertensive activity in po dosed renal hypertensive rat assessed as dose required to produce lowering of blood pressure to <= 130 mm after 2 to 24 hrs by photoelectric tensometric analysis
Type: functional

`COc1cc(/C=N/NC2=NCCc3ccccc32)cc(OC)c1O.Cl` and `COc1cccc(/C=N/NC2=NCCc3ccccc32)c1OC.Cl` cannot be ordered by ED50: over 50 mg/kg for the first, over 50 mg/kg for the second.

First: NNC1=NCCc2ccccc21
Second: Cl.NC1=NCCc2ccccc21
The ED50 of the first is lower: 30 mg/kg for the first, over 50 mg/kg for the second.

Going from `F[B-](F)(F)F.[NH3+]NC1=NCC(O)c2ccccc21` (stereo unspecified) to `CC1Cc2ccccc2C(NN)=N1.Cl` (stereo unspecified), the ED50 falls from over 50 mg/kg to 40 mg/kg.

Going from `CCCCCCNC1=NCCc2ccccc21.O=S(=O)(O)O` to `C/C=N/NC1=NCCc2ccccc21.O=S(=O)(O)O`, the ED50 falls from over 50 mg/kg to 15 mg/kg.

`CN(C)CCNC1=NCCc2ccccc21.Cl` and `CN(C)NC1=NCCc2ccccc21.Cl` cannot be ordered by ED50: over 50 mg/kg for the first, over 50 mg/kg for the second.

`O=S(=O)(O)O.c1ccc2c(c1)CCN=C2NCc1ccncc1` and `Nc1ccc(CCNC2=NCCc3ccccc32)cc1Cl.O=S(=O)(O)O` cannot be ordered by ED50: over 50 mg/kg for the first, over 50 mg/kg for the second.

`COc1ccc(CCNC2=NCCc3ccccc32)cc1OC.O=S(=O)(O)O` and `COc1cc(CCNC2=NCCc3ccccc32)cc(OC)c1OC.O=S(=O)(O)O` cannot be ordered by ED50: over 50 mg/kg for the first, over 50 mg/kg for the second.

`O=S(=O)(O)O.c1ccc2c(c1)CCN=C2NCCc1ccc2c(c1)OCO2` and `Cl.Oc1ccc(CCNC2=NCCc3ccccc32)cc1O` cannot be ordered by ED50: over 50 mg/kg for the first, over 50 mg/kg for the second.

`CCN(CC)CCOc1ccc(CNC2=NCCc3ccccc32)cc1.O=S(=O)(O)c1cccc2c(S(=O)(=O)O)cccc12` and `O=S(=O)(O)c1cccc2c(S(=O)(=O)O)cccc12.c1ccc(CONC2=NCCc3ccccc32)cc1` cannot be ordered by ED50: over 50 mg/kg for the first, over 50 mg/kg for the second.

`COc1ccc(NC2=NCCc3ccccc32)cc1` and `C(=N\NC1=NCCc2ccccc21)/c1ccccc1.Cl` cannot be ordered by ED50: over 50 mg/kg for the first, over 50 mg/kg for the second.

`Cl.c1ccc2c(c1)CCN=C2N1CCCCC1` and `O=S(=O)(O)O.c1ccc2c(c1)CCN=C2NN=C1CCCCC1` cannot be ordered by ED50: over 50 mg/kg for the first, over 50 mg/kg for the second.

Going from `CC(C)=NNC1=NCCc2ccccc21.O=S(=O)(O)O` to `C/C=C/C(C)=N\NC1=NCCc2ccccc21.O=S(=O)(O)O`, the ED50 rises from 15 mg/kg to over 50 mg/kg.

Going from `CCCC/C=N/NC1=NCCc2ccccc21.Cl` to `NNc1nncc2ccccc12` [HYDRALAZINE], the ED50 falls from over 50 mg/kg to 10 mg/kg.
